Counter-ions that a name gives are not always drawn.
Tests used:
[1] = target: T1, N-type Ca2+ channel (Homo sapiens, UniProt Q00975); experiment: Measurement of N-type Ca2+ channel blocking potencies in IMR-32 cells using the fluorescent Ca2+ indicator Indo-1; assay type: cell-based; settings: K+-stimulated Ca2+ flux, 5 μM nitrendipine to block L-type channels
T1 construct: host or cells: IMR-32 cells, differentiated with dibutyryl cAMP and bromodeoxyuridine
Experimental: Measurement of N-type Ca^2+ Channel Blocking Potencies of Compounds in IMR-32 Cells Using the Fluorescent Ca^2+Indicator Indo-1
IMR-32 cells are a human tumoral cell line of neural origin. […] Calcium flux into these cells may be induced by stimulation with elevated potassium concentrations. The L-channel component of calcium flux may be blocked by adding 5 μM nitrendipine. The remaining component of calcium entry into the IMR-32 cells is due to calcium flux through N-type calcium channels. Intracellular calcium concentrations are measured using the fluorescent calcium indicator Indo-1. The effect of drug concentration on calcium uptake is studied.
The IMR-32 cell line was obtained from the American Type Culture Collection (Rockville, Md.). Cells were grown in Eagle's Minimum Essential Medium with Earle's salts supplemented with 10% fetal bovine serum, 2 mM L-Gln and antibiotic/antimycotic mixture (Gibco). […] After 7 to 13 days of differentiation, cells were detached using 0.5 mM EDTA and loaded with 5 μM Indo-1 acetoxymethyl ester (Molecular Probes, Eugene, Oreg.) at 30° C. for 45 minutes. Loaded cells were washed twice, resuspended (˜10^7 cells/mL) in assay buffer (10 mM HEPES/Tris pH 7.4 in Hank's Balanced Salt Solution without bicarbonate or phenol red containing 0.5% bovine serum albumin) and kept on ice until use. Fluorescence measurements were carried out in a Photon Technology International (PTI, South Brunswick, N.J.) Model RF-F3004 spectrofluorometer with dual emission monochromators using excitation at […] and emission at 400 and 490 nm. The instrument was equipped with a thermostated cuvette holder with stirring capabilities as well as with a computer-controlled pump which allowed for reagent addition during measurement. Instrument control and data collection was done by PTI's OSCAR software running on an IBM compatible computer. Different concentrations of the test compounds (60 μL in dimethyl sulfoxide) were added to 5.94 mL of assay buffer containing approximately 3×10^6 loaded cells, and 5 μM Nitrendipine (in […] EtOH) to block L-type Ca^2+ channels. Samples were incubated for 10 minutes at 30° C. and then aliquoted into three 10×10 mm disposable acrylic cuvettes. Emission signals at 400 and 490 nm were acquired from each cuvette at 30° C. for 50 seconds. At 20 seconds after the start of reading, cells were depolarized by the addition of 160 μL of stimulation solution (1 M KCl, 68 mM CaCl2) to the cuvette via the computer-controlled pump. Ratio of dual emission signals (400 nm/490 nm), which is proportional to intracellular Ca^2+ concentration, was plotted against time, and the difference between maximal response after stimulation and basal value (before stimulation) was determined. Values obtained in this way were plotted as a function of drug concentration. IC50 values of test compounds were calculated by fitting a four-parameter logistic function to the data using the least squares method.

[2] = tested on: DBA/2 mice; experiment: Audiogenic seizure (anticonvulsant) test in DBA/2 mice; assay type: in vivo; settings: Mus musculus, intravenous, sound-induced tonic seizures, tested 15 or 45 minutes after injection, read-out: DBA/2 mice % Protection
Experimental: In vivo Biological Protocol:
A compound of the present invention was dissolved in water using 10% (weight/volume) Emulphor (GAF Corp., Wayne, N.J.) surfactant. Substances were administered by intravenous injection into the retro-orbital venous sinus. All testing was performed 15 minutes or 45 minutes after drug injection. All the male mice, 3-4 weeks old were obtained from Jackson Laboratories Bar Harbour, Me. Immediately before anticonvulsant testing, mice were placed upon a wire mesh, 4 inches square suspended from a steel rod. The square was slowly inverted through 180 degrees and mice observed for 30 seconds. Any mouse falling from the wire mesh was scored as ataxia.
Mice were placed into an enclosed acrylic plastic chamber (21 cm height, approximately 30 cm diameter) with a high-frequency speaker (4 cm diameter) in the center of the top lid. An audio signal generator (Protek model B-810) was used to produce a continuous sinusoidal tone that was swept linearly in frequency between 8 kHz and 16 kHz once each 10 msec. The average sound pressure level (SPL) during stimulation was approximately 100 dB at the floor of the chamber. Mice were placed within the chamber and allowed to acclimatize for 1 minute. DBA/2 mice in the vehicle-treated group responded to the sound stimulus (applied until tonic extension occurred, or for a maximum of 60 sec) with a characteristic seizure sequence consisting of wild running followed by clonic seizures, and later by tonic extension, and finally by respiratory arrest and death in 80% or more of the mice. In vehicle-treated mice, the entire sequence of seizures to respiratory arrest lasts approximately 15-20 seconds.
The incidence of all the seizure phases in the drug-treated and vehicle-treated mice was recorded, and the occurrence of tonic seizures were used for calculating anticonvulsant ED50 values by probit analysis. Mice were used only once for testing at each time and dose point.

T1 sequence (Q00975 whole entry): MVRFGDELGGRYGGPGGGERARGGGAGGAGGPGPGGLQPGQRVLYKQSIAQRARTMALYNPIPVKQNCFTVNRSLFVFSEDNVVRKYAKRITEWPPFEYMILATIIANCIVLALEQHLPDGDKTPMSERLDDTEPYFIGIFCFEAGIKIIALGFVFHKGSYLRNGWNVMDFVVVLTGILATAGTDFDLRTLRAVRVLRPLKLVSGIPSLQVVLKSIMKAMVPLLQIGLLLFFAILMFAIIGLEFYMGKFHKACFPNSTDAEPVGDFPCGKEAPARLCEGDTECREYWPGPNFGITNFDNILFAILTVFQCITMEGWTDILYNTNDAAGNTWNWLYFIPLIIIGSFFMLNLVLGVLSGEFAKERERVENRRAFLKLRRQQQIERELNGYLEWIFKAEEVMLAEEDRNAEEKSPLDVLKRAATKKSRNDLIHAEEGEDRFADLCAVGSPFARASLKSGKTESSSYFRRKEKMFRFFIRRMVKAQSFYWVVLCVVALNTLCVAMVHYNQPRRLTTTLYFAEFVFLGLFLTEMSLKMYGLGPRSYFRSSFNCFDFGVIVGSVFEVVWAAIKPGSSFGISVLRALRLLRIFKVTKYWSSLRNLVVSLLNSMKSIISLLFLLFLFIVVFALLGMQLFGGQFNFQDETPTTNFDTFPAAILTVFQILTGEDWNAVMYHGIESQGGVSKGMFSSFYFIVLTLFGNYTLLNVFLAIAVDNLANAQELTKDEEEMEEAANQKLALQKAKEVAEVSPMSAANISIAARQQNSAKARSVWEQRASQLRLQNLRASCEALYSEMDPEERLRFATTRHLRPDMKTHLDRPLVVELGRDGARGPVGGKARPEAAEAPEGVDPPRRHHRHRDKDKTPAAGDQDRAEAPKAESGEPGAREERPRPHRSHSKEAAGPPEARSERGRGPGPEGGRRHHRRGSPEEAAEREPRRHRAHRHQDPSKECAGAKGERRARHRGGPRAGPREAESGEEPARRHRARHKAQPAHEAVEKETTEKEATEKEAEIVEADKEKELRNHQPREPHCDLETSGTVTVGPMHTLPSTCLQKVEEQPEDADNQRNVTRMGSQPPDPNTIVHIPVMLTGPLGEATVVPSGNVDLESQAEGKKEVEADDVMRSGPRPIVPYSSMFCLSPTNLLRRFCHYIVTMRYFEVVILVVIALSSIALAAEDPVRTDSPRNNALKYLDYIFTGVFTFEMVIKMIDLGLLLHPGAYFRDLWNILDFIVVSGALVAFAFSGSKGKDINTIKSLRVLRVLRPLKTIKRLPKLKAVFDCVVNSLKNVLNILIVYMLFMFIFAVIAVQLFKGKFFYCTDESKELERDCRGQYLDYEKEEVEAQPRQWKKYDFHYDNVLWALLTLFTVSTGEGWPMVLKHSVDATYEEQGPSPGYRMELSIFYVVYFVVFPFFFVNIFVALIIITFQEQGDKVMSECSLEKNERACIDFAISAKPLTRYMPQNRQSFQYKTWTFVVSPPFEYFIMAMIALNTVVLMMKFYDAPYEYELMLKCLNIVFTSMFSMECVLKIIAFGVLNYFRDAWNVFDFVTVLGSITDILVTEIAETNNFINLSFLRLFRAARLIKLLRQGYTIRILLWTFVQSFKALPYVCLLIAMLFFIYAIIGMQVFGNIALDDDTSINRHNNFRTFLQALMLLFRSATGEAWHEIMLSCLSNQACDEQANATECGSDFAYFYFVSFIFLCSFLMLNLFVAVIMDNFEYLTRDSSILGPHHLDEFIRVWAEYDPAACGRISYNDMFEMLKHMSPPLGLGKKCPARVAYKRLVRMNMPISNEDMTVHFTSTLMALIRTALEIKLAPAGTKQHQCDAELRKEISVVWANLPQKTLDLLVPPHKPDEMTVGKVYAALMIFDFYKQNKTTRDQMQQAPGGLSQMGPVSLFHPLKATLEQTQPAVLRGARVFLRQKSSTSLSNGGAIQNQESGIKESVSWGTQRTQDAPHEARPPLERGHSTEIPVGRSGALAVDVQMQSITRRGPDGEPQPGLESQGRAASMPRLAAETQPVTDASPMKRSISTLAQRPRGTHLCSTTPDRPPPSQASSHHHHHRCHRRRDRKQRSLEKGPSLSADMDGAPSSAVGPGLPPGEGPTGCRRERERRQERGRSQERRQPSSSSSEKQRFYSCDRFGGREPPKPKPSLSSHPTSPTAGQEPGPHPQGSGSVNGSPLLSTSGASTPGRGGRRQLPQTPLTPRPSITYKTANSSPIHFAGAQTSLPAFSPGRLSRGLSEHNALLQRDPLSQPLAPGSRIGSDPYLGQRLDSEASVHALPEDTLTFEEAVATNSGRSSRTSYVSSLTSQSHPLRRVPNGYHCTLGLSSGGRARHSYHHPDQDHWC
T1 sequence (P54289 25-956 partner limits assumed): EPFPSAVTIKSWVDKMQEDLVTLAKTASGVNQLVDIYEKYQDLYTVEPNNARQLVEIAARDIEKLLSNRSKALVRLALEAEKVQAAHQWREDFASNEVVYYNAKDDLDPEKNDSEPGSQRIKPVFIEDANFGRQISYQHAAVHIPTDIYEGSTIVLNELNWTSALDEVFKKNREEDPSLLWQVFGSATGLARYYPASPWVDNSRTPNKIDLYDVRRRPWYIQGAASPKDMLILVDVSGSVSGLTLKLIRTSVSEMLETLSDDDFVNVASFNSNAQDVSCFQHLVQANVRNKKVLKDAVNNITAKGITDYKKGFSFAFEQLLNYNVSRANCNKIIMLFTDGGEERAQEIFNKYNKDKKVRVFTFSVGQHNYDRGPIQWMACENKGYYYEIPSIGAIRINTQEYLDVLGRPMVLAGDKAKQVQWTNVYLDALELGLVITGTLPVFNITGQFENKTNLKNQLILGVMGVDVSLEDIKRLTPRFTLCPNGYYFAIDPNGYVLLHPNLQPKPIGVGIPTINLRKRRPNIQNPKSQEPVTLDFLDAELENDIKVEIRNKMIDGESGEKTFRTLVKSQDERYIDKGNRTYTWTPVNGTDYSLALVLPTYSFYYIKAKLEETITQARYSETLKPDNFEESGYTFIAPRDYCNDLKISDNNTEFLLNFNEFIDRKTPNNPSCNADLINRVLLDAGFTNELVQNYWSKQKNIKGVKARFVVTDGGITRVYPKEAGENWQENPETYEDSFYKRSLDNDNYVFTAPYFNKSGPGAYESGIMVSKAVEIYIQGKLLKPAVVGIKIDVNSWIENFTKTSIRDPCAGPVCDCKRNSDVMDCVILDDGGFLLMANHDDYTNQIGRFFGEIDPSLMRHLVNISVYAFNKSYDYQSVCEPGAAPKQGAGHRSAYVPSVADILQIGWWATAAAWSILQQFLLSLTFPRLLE
T1 sequence (P54289 957-1103 partner limits assumed): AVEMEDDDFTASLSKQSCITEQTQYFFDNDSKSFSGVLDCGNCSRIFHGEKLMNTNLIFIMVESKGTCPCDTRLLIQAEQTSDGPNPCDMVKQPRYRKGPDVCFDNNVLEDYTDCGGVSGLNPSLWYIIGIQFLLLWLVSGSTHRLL
T1 sequence (Q02641 whole entry partner): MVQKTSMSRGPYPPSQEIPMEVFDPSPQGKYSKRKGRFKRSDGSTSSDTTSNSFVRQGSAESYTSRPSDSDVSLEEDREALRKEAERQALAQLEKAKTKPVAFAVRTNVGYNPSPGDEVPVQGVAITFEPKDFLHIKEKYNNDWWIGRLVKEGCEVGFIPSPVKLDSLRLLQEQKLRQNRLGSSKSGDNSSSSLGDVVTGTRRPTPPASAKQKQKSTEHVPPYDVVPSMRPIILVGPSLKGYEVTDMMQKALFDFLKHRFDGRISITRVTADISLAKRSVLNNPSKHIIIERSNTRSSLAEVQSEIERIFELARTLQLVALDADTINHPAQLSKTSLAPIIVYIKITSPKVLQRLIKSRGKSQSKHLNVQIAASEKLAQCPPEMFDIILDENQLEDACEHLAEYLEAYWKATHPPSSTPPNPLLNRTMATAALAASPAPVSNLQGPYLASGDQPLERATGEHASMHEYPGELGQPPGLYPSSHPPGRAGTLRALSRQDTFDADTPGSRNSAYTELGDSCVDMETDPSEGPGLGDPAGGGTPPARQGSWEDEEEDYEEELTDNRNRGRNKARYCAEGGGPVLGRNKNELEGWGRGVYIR

| SMILES | IC50 [1] [µM] | melting point [°C] | responders at 10 mg/kg ([2]; 10 mg/kg) [%] | responders at 30 mg/kg ([2]; 30 mg/kg) [%] |
| --- | --- | --- | --- | --- |
| CC(C)=CCN(CCNC(=O)[C@H](CC(C)C)NC(=O)N1CCCCCC1)c1ccc(OCc2ccccc2)cc1 [Example 3, (S)-Azepane-1-carboxylic acid (1-{2-[(4-benzyloxy-phenyl)-(3-methyl-but-2-enyl)-amino]-ethylcarbamoyl}-3-methyl-butyl)-amide] | 0.69 | 71 | – | – |
| CC(C)C[C@H](NC(=O)N1CCCCCC1)C(=O)NCCN(Cc1ccccc1)c1ccc(OCc2ccccc2)cc1 [Example 7, (S)-Azepane-1-carboxylic acid (1-{2-[benzyl-(4-benzyloxy-phenyl)-amino]-ethylcarbamoyl}-3-methyl-butyl)-amide] | 1.9 | 65 to 66 | – | – |
| CC(C)CCN(c1ccc(NCc2ccc(O)cc2)cc1)C1CCN(C(=O)[C@H](CC(C)C)NC(=O)N2CCCCCC2)CC1 [Example 42, (S)-Azepane-1-carboxylic acid (1-{4-[[4-(4-hydroxy-benzylamino)-phenyl]-(3-methyl-butyl)-amino]-piperidine-1-carbonyl}-3-methyl-butyl)-amide] | 0.69 | – | – | 20 |

Continued, in another order:

| IC50 [1] [µM] | melting point [°C] | SMILES | responders at 10 mg/kg ([2]; 10 mg/kg) [%] | responders at 30 mg/kg ([2]; 30 mg/kg) [%] |
| --- | --- | --- | --- | --- |
| 0.84 | 79 to 80 | CC(C)C[C@H](NC(=O)N1CCCCCC1)C(=O)NCCN(c1ccc(OCc2ccccc2)cc1)C1C=CCCC1 (stereo partly drawn) [Example 6, (S)-Azepane-1-carboxylic acid (1-{2-[(4-benzyloxy-phenyl)-cyclohex-2-enyl-amino]-ethylcarbamoyl}-3-methyl-butyl)-amide] | – | – |
| 0.75 | 48 to 52 | CC(C)=CCN(CCCNC(=O)[C@H](CC(C)C)NC(=O)N1CCCCCC1)c1ccc(OCc2ccccc2)cc1 [Example 4, (S)-Azepane-1-carboxylic acid (1-{3-[(4-benzyloxy-phenyl)-(3-methyl-but-2-enyl)-amino]-propylcarbamoyl}-3-methyl-butyl)-amide] | – | – |
| 0.65 | – | CC(C)=CCN(c1ccc(OCc2ccccc2)cc1)C1CCN(C(=O)[C@H](CC(C)C)N(C)C)CC1 [Example 23, (S)-1-{4-[(4-Benzyloxy-phenyl)-(3-methyl-but-2-enyl)-amino]-piperidin-1-yl}-2-dimethylamino-4-methyl-pentan-1-one] | 40 | – |
| – | 125 to 126 | CC(C)=CCN(c1ccc(OCc2ccccc2)cc1)C1CCN(C(=O)[C@H](CC(C)C)NC(=O)N2CCCCCC2)CC1 (as salt: hydrochloride) [Example 5, (S)-Azepane-1-carboxylic acid (1-{4-[(4-benzyloxy-phenyl)-(3-methyl-but-2-enyl)-amino]-piperidine-1-carbonyl}-3-methyl-butyl)-amide hydrochloride salt] | – | – |

— patent publication US6495715B2, “Calcium channel blockers” (Warner-Lambert Company, priority 1997, dated 2002)
